The source of these data is US20030064954A1, “Cationic amphiphilic 1,4-dihydropyridine derivatives useful for delivery of nucleotide containing compounds” (priority 2000, published 2003).

Molecules are shown by their SMILES.

One series deals with CVI-P cells. Put plainly: Cytotoxicity of amphiphile/DNA complexes, percentage of survived cells. As to conditions: for cell viable: 'at +/−', charge ratio not given.
Another series has as its system plasmid DNA. In words: DNA condensation/complexation, EtBr displacement assay. Format: binding. The method, boiled down: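 Plasmid DNA (0.6 μg/well) was mixed with 0.002% EtBr in 20 mM HEPES–150 mM NaCl pH 7.4, then cationic liposomes were added at various +/− charge ratios.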
For series [1], the system named is CV-1P (African monkey green kidney fibroblasts cells). Put plainly: In vitro transfection of plasmid DNA, β-galactosidase activity per well. Format: cell-based. The settings on record: CVI-P; for transfection, result in words: entry spans the charge ratios 8-0.5. The method, boiled down: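 CV-1P cells (20 000/well) given compound/DNA complexes at various charge ratios, prepared in 50 mM MES–50 mM HEPES–75 mM NaCl pH 7.2, 0.6 μg DNA/well, for 5 h at 37 °C, then 45 h in growth medium. Lysates assayed for β-galactosidase via oNPG hydrolysis at 405 nm against an E. coli enzyme standard; efficiency expressed as percent of Lipofectin.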

The mark [2] stands for this setting: amphiphile/DNA +/− charge ratio 0.5.
[3] abbreviates: amphiphile/DNA +/− charge ratio 1.
Setting [4] is: amphiphile/DNA +/− charge ratio 2.
Where [5] appears, read: amphiphile/DNA +/− charge ratio 4.
The mark [6] stands for this setting: amphiphile/DNA +/− charge ratio 8.

A word on the melting point: it is the temperature of the solid-liquid transition.

`Br.CCCCCCCCCCCCCCCC[n+]1cccc(C2C(C(=O)OC3CC(C)CCC3C(C)C)=C(C)NC(C)=C2C(=O)OC2CC(C)CCC2C(C)C)c1.[Br-]` (stereo not drawn) [XVIII, 1-Hexadecyl-1′,4′-dihydro-3′,5′-bis(menthyloxycarbonyl)-2′,6′-dimethyl-3,4′-bipyridinium bromide]: the melting point fell in the range of 115 to 117 °C. In the series with CVI-P cells (setting [2]), the “cytotoxicity as a percentage of survived cells” value (shortened to “cytotoxicity as a percentage”) is 85,15%. Further, in the series on CVI-P cells (setting [3]), the “cytotoxicity as a percentage” value is 83,94%. In addition, in the series on CVI-P cells (setting [4]), the “cytotoxicity as a percentage” value is recorded as 76,51%. Besides, the “cytotoxicity as a percentage” value in the series on CVI-P cells (setting [5]) was 9,08%. Also, the “cytotoxicity as a percentage” value in the series with CVI-P cells (setting [6]) was 3,05%. Moreover, in the series on plasmid DNA (setting [2]), the “complexation, percentage of the maximum fluorescence signal when EtBr bound to DNA in the absence of an amphiphile” value was 97,5%. Moreover, the “complexation, percentage of the maximum fluorescence signal when EtBr bound to DNA in the absence of an amphiphile” value in the series with plasmid DNA (setting [3]) is on record as 90,8%. Further, the “complexation, percentage of the maximum fluorescence signal when EtBr bound to DNA in the absence of an amphiphile” value in the series with plasmid DNA (setting [4]) is reported as 82,6%. Besides, the “complexation, percentage of the maximum fluorescence signal when EtBr bound to DNA in the absence of an amphiphile” value in the series with plasmid DNA (setting [5]) is 78,5%. In the series with plasmid DNA (setting [6]), the “complexation, percentage of the maximum fluorescence signal when EtBr bound to DNA in the absence of an amphiphile” value is given as 79,6%.

For the molecule `CC1=C(C(=O)OC2CC(C)CCC2C(C)C)C(c2ccc[n+](C)c2)C(C(=O)OC2CC(C)CCC2C(C)C)=C(C)N1.I.[I-]` (stereo not drawn) [X, 1′,4′-Dihydro-3′,5′-bis(menthyloxycarbonyl)-1,2′,6′-trimethyl-3,4′-bipyridinium iodide], the melting point lay within 156 to 159 °C. Also, the “transfection, result in words” value in series [1] is “No signal”. Moreover, the cell viable in the series with CVI-P cells stood at 50%.

On to `Br.CCCCCCCCCCCCCCOC(=O)C1=C(C)NC(C)=C(C(=O)OCCCCCCCCCCCCCC)C1c1ccc[n+](CCCCCCCCC)c1.[Br-]` [XIV, 1′,4′-Dihydro-2′,6′-dimethyl-1-nonyl-3′,5′-bis(tetradecyloxycarbonyl)-3,4′-bipyridinium bromide], for which the melting point is 124 to 126 °C (dec.). In series [1] (setting [2]), the transfection efficiency is recorded as 0,75 β-galactosidase units per well. Besides, the transfection efficiency in series [1] (setting [3]) was 3,38 β-galactosidase units per well. The transfection efficiency in series [1] (setting [4]) was 1,5 β-galactosidase units per well. In addition, the “cytotoxicity as a percentage” value in the series on CVI-P cells (setting [2]) is 103,98%. The “cytotoxicity as a percentage” value in the series on CVI-P cells (setting [3]) is 93,16%. Also, the “cytotoxicity as a percentage” value in the series on CVI-P cells (setting [4]) is reported as 51,04%. Further, the “cytotoxicity as a percentage” value in the series with CVI-P cells (setting [5]) is 34,5%. For the same molecule, the “cytotoxicity as a percentage” value in the series on CVI-P cells (setting [6]) was 44,62%. Also, the “complexation, percentage of the maximum fluorescence signal when EtBr bound to DNA in the absence of an amphiphile” value in the series on plasmid DNA (setting [2]) came to 100%. Also, the “complexation, percentage of the maximum fluorescence signal when EtBr bound to DNA in the absence of an amphiphile” value with plasmid DNA (setting [3]) is on record as 96,2%. Besides, the “complexation, percentage of the maximum fluorescence signal when EtBr bound to DNA in the absence of an amphiphile” value in the series on plasmid DNA (setting [4]) is on record as 91,03%. For the same molecule, the “complexation, percentage of the maximum fluorescence signal when EtBr bound to DNA in the absence of an amphiphile” value with plasmid DNA (setting [5]) is 88,9%. The “complexation, percentage of the maximum fluorescence signal when EtBr bound to DNA in the absence of an amphiphile” value in the series on plasmid DNA (setting [6]) was 93,7%.

Turning to `Br.CCCCCCCCC[n+]1cccc(C2C(C(=O)OCC)=C(C)NC(C)=C2C(=O)OCC)c1.[Br-]` [XIII, 3′,5′-Bis(ethoxycarbonyl)-1′,4′-dihydro-2′,6′-dimethyl-1-nonyl-3,4′-bipyridinium bromide], the melting point is 142 to 143 °C (dec.). Moreover, the “transfection, result in words” value in series [1] is “No signal”.

Turning to `CCCCCCCCCCCCCCCCOC(=O)C1=C(C)NC(C)=C(C(=O)OCCCCCCCCCCCCCCCC)C1c1ccc[n+](CC(N)=O)c1.I.[I-]` [XX, 1-Carbamoylmethyl-3′,5′-bis(hexadecyloxycarbonyl)-1′,4′-dihydro-2′,6′-dimethyl-3,4′-bipyridinium iodide], the melting point was 140 to 141 °C (dec.). For the same molecule, the “transfection, result in words” value in series [1] is given as “No signal”. Also, the “cytotoxicity as a percentage” value in the series with CVI-P cells (setting [2]) is on record as 100,59%. The “cytotoxicity as a percentage” value in the series with CVI-P cells (setting [3]) was 110,76%. Further, in the series with CVI-P cells (setting [4]), the “cytotoxicity as a percentage” value is reported as 59,96%. Also, the “cytotoxicity as a percentage” value with CVI-P cells (setting [5]) is 71,98%. Moreover, the “cytotoxicity as a percentage” value in the series on CVI-P cells (setting [6]) is reported as 92,09%. In addition, the “complexation, percentage of the maximum fluorescence signal when EtBr bound to DNA in the absence of an amphiphile” value in the series on plasmid DNA (setting [2]) was 88,0%. For the same molecule, in the series with plasmid DNA (setting [3]), the “complexation, percentage of the maximum fluorescence signal when EtBr bound to DNA in the absence of an amphiphile” value is reported as 81,94%. The “complexation, percentage of the maximum fluorescence signal when EtBr bound to DNA in the absence of an amphiphile” value in the series on plasmid DNA (setting [4]) is given as 76,4%. Also, the “complexation, percentage of the maximum fluorescence signal when EtBr bound to DNA in the absence of an amphiphile” value in the series with plasmid DNA (setting [5]) is reported as 71,5%. In the series on plasmid DNA (setting [6]), the “complexation, percentage of the maximum fluorescence signal when EtBr bound to DNA in the absence of an amphiphile” value is given as 66,31%.

Molecule `Br.CCCCCCCCCCCCCCCC[n+]1cccc(C2C(C(=O)OCC)=C(C)NC(C)=C2C(=O)OCC)c1.[Br-]` [XV, 3′,5′-Bis (ethoxycarbonyl)-1-hexadecyl-1′,4′-dihydro-2′,6′-dimethyl-3,4′-bipyridinium bromide] returned a melting point of 135 to 136 °C. For the same molecule, the “transfection, result in words” value in series [1] was “No signal”.

In the case of `Br.CCCCCCCCCCCCCCCC[n+]1cccc(C2C(C(=O)OCCCCCCCCCCCCCC)=C(C)NC(C)=C2C(=O)OCCCCCCCCCCCCCC)c1.[Br-]` [XVII, 1-Hexadecyl-1′,4′-dihydro-2′,6′-dimethyl-3′,5′-bis(tetradecyloxycarbonyl)-3,4′-bipyridinium bromide], the melting point fell in the range of 133 to 135 °C. The “transfection, result in words” value in series [1] is listed as “No signal”. Further, the “cytotoxicity as a percentage” value in the series on CVI-P cells (setting [2]) is given as 105,14%. Moreover, the “cytotoxicity as a percentage” value in the series with CVI-P cells (setting [3]) is 85,31%. The “cytotoxicity as a percentage” value in the series on CVI-P cells (setting [4]) is given as 88,20%. Moreover, the “cytotoxicity as a percentage” value in the series on CVI-P cells (setting [5]) is on record as 67,45%. The “cytotoxicity as a percentage” value in the series with CVI-P cells (setting [6]) is recorded as 97,34%. For the same molecule, the “complexation, percentage of the maximum fluorescence signal when EtBr bound to DNA in the absence of an amphiphile” value in the series with plasmid DNA (setting [2]) was 104,4%. The “complexation, percentage of the maximum fluorescence signal when EtBr bound to DNA in the absence of an amphiphile” value in the series on plasmid DNA (setting [3]) is listed as 97,9%. Moreover, the “complexation, percentage of the maximum fluorescence signal when EtBr bound to DNA in the absence of an amphiphile” value in the series on plasmid DNA (setting [4]) is 95,1%. Moreover, the “complexation, percentage of the maximum fluorescence signal when EtBr bound to DNA in the absence of an amphiphile” value in the series with plasmid DNA (setting [5]) worked out at 97%. For the same molecule, in the series on plasmid DNA (setting [6]), the “complexation, percentage of the maximum fluorescence signal when EtBr bound to DNA in the absence of an amphiphile” value is listed as 96,5%.

Regarding `Br.CCOC(=O)C[n+]1cccc(C2C(C(=O)OC3CC(C)CCC3C(C)C)=C(C)NC(C)=C2C(=O)OC2CC(C)CCC2C(C)C)c1.[Br-]` (stereo not drawn), the melting point is 180 °C (dec.).

As to `Br.CCOC(=O)C[n+]1ccc(C2C(C(=O)OCC)=C(C)NC(C)=C2C(=O)OCC)cc1.[Br-]`, the melting point lay in the range of 140 to 143 °C.

`Br.CCCOCCOC(=O)C1=C(C)NC(C)=C(C(=O)OCCOCCC)C1c1ccc[n+](CC(=O)c2ccccc2)c1.[Br-]`: the melting point lay within 135 to 138 °C.

As for `Br.CCOCCOC(=O)C1=C(C)NC(C)=C(C(=O)OCCOCC)C1c1ccc[n+](CC(=O)OCC)c1.[Br-]`, the melting point lay within 163 to 165 °C.

The molecule `Br.CCOC(=O)C1=C(C)NC(C)=C(C(=O)OCC)C1c1cc[n+](CC(=O)c2ccc3ccccc3c2)cc1.[Br-]` gave a melting point of 211 to 216 °C.

Molecule `Br.CCCCCCCCCCCCCCCC[n+]1cccc(C2C(C(=O)OCCOCCC)=C(C)NC(C)=C2C(=O)OCCOCCC)c1.[Br-]` [XVI, 1-Hexadecyl-1′,4′-dihydro-2′,6′-dimethyl-3′,5′-bis[(2-propoxyethoxy)carbonyl]-3,4′-bipyridinium bromide] registered a melting point of 93 to 96 °C. For the same molecule, the “transfection, result in words” value in series [1] is “No signal”. Moreover, in the series on CVI-P cells, the cell viable is reported as 50%.

Molecule `CC1=C(C(=O)OC2CC3CCC2(C)C3(C)C)C(c2ccc[n+](C)c2)C(C(=O)OC2CC3CCC2(C)C3(C)C)=C(C)N1.I.[I-]` (stereo not drawn) [XI, 3′,5′-Bis(bornyloxycarbonyl)-1′,4′-dihydro-1,2′,6′-trimethyl-3,4′-bipyridinium iodide] gave a melting point of 271 to 274 °C. Besides, the “transfection, result in words” value in series [1] was “No signal”. In addition, the cell viable in the series on CVI-P cells amounted to 50%.

The molecule `Br.CCOC(=O)C[n+]1ccccc1C1C(C(=O)OCC)=C(C)NC(C)=C1C(=O)OCC.[Br-]` displayed a melting point of 197 to 199 °C.

Molecule `Br.CCOC(=O)C1=C(C)NC(C)=C(C(=O)OCC)C1c1cc[n+](CC(=O)c2ccccc2)cc1.[Br-]` gave a melting point of 224 to 227 °C.

`CC1=C(C(=O)OC2CC3CCC2(C)C3(C)C)C(c2cc[n+](C)cc2)C(C(=O)OC2CC3CCC2(C)C3(C)C)=C(C)N1.I.[I-]` (stereo not drawn) [Example 2u, 3′,5′-Bis(bornyloxycarbonyl)-1′,4′-dihydro-1,2′,6′-trimethyl-4,4′-bipyridinium iodide]: the melting point was 270 °C (dec.).

The molecule `Br.CCOC(=O)C1=C(C)NC(C)=C(C(=O)OCC)C1c1ccc[n+](CCCCCCCCCCCC(=O)O)c1.[Br-]` showed a melting point of 152 to 156 °C.

Turning to `Br.CCCCCCCCCCCCCCCCOC(=O)C1=C(C)NC(C)=C(C(=O)OCCCCCCCCCCCCCCCC)C1c1ccc[n+](CC(=O)OCC)c1.[Br-]`, the melting point lay within 99 to 102 °C.
